Patent US6235716A, “Multivalent ligands which modulate angiogenesis” (Children's Medical Center Corporation, priority 1999, dated 2001)
No end group written: not given here.

Experiments:
B16 melanoma tumors = experiment: Multivalent ligands modulate B16 melanoma tumor growth in mice; format: in vivo; details: C57BL or CBF1 mice; S.C. injection remote from tumor, 20-30 mg/kg body weight/day for two weeks, started one week after tumor inoculation
Method: B16 melanoma cells were injected into 7-8 week old female C57BL mice or CBF1 mice, S.C., 2×10^5 cells per mouse, in 0.1 ml volume. One week after the tumor innoculation, the treatment was started by S.C. injection at sites remote from the tumor of the indicated multivalent ligand at a dose 20-30 mg/kg body weight/day for a period of two weeks. Tumors were measured with a dial-caliper and volumes were determined using the formula: (width)^2×length×0.52. Each group (experimental or control) contained 5-6 mice. FIGS. 6-9 depict changes in mean tumor-volume over time.

[1] = tested on: bovine aortic endothelial cells (A19 cells); experiment: Proliferation of bovine aortic endothelial cells in vitro (methylene blue staining, O.D. 630 nm); format: cell-based; details: increasing concentrations (μg/ml), 72-80 hours incubation, medium with 1 ng/ml basic fibroblast growth factor; relative to untreated cells
Method: The experiments were performed using 96 well, flat bottom, tissue culture microtiter plates. Culture medium was prepared from DMEM, penicillin (100 U/ml), streptomycin (100 μg/ml), glutamine (2 mM), 10% endotoxin free bovine calf serum (Hyclone) and 1 ng/ml of basic fibroblast growth factor (any commericial source).
Bovine aortic endothelial cells (referred to herein as "A19 cells") were obtained by procedures disclosed in Gospodorowicz et al., Proc. Natl. Acad. Sci. USA 73:4120 (1976), the entire teachings of which are incorporated herein by reference. An A19 cell suspension at 25×10^3 cells/ml was prepared in the above described culture medium and distributed 0.160 ml/well (about 4000 endothelial cells/well).
Multivalent ligand peptides Tip-18.40 and Tip-19.40 stock solutions was prepared by diluting a 10 mM solution of the HJ peptide in 100% DMSO with phosphate buffered saline (PBS)containing 0.1% BSA. The concentration of HJ peptide in each stock solution was adjusted to nine times the desired concentration of the HJ peptide in the assay mixture. 0.020 ml of each HJ peptide stock solution was added to the corresponding wells about 2 hours after BCE plating, with six replicates for each concentration. […]
The wells were washed one time with borate buffer (0.1 M, pH 8.5). […] After extracting overnight, the O.D. was read at 630 nm to determine the relative number of cells per well. […]

Tip-17.40: four-branch pennant polylysine trimer; four hybrid peptides of SEQ ID NO.: 9 attached via -Gly-Gly- linker (Ac-TAYRWRLSHRPKDLYSIVRRADR; not fully specified; printed as Ac-TAYRWRLSHRPKDLYSIVRRADR; also: four copies on polylysine core via Gly-Gly linker)
effect on B16 melanoma tumor growth (mean tumor volume over time versus vehicle control) (B16 melanoma tumors): promoted tumor growth

Tip-18.40: four-branch pennant polylysine trimer; four hybrid peptides of SEQ ID NO.: 11 attached via -Gly-Gly- linker (Ac-RWRLSHRPKDLYSIVRRADR; not fully specified; printed as Ac-RWRLSHRPKDLYSIVRRADR; also: four copies on polylysine core via Gly-Gly linker)
effect on proliferation of bovine aortic endothelial cells in vitro [1]: inhibit the proliferation
effect on B16 melanoma tumor growth (mean tumor volume over time versus vehicle control) (B16 melanoma tumors): suppressed tumor growth

Tip-14.40: four-branch pennant polylysine trimer; four TSP-1/endostatin hybrid peptides of SEQ ID NO.: 3 attached by covalent bond (Ac-TFRAFLSSRLQTGFIRVVMYEG; also: four copies on branched polylysine core)
effect on B16 melanoma tumor growth (mean tumor volume over time versus vehicle control) (B16 melanoma tumors): weak, but statistically significant inhibition

Tip-12.40: four-branch pennant polylysine trimer; four peptides of SEQ ID NO.: 7 (endostatin AHR derivative) attached by covalent bond (Ac-TFRAFLSSRLQDLYSIVRRADG; also: four copies on branched polylysine core)
effect on B16 melanoma tumor growth (mean tumor volume over time versus vehicle control) (B16 melanoma tumors): suppressed tumor growth

Tip-16.40: four-branch pennant polylysine trimer; four hybrid peptides of SEQ ID NO.: 10 attached via -Gly-Gly- linker (Ac-AYRWRLSHRPKDLYSIVRRADR; not fully specified; printed as Ac-AYRWRLSHRPKDLYSIVRRADR; also: four copies on polylysine core via Gly-Gly linker)
effect on B16 melanoma tumor growth (mean tumor volume over time versus vehicle control) (B16 melanoma tumors): suppressed tumor growth

Tip-13.40: four-branch pennant polylysine trimer; four peptides of SEQ ID NO.: 8 (TSP-1 AHR derivative) attached by covalent bond (Ac-AYRWRLSHRPKTGFIRVVMYEG; also: four copies on branched polylysine core)
effect on B16 melanoma tumor growth (mean tumor volume over time versus vehicle control) (B16 melanoma tumors): suppressed tumor growth

Tip-19.40: four-branch pennant polylysine trimer; four hybrid peptides of SEQ ID NO.: 12 attached via -Gly-Gly- linker (Ac-KDFTAYRWRLSHRPKDLYSIVRRADR; not fully specified; printed as Ac-KDFTAYRWRLSHRPKDLYSIVRRADR; also: four copies on polylysine core via Gly-Gly linker)
effect on proliferation of bovine aortic endothelial cells in vitro [1]: inhibit the proliferation
effect on B16 melanoma tumor growth (mean tumor volume over time versus vehicle control) (B16 melanoma tumors): suppressed tumor growth

Tip-15.40: four-branch pennant polylysine trimer; four TSP-1/endostatin hybrid peptides of SEQ ID NO.: 4 attached by covalent bond (Ac-AYRWRLSHRPKDLYSIVRRADG; also: four copies on branched polylysine core)
effect on B16 melanoma tumor growth (mean tumor volume over time versus vehicle control) (B16 melanoma tumors): weak, but statistically significant inhibition
